The record followed here is patent publication US20260035364A1, “BICYCLIC TETRAHYDROTHIAZEPINE DERIVATIVES” (Hoffmann-La Roche Inc., priority 2022, published 2026).

A word on the Emax: it is the size of the effect at its maximum, as opposed to the concentration needed. The EC50 is the midpoint of the concentration-response curve. By IC50 is commonly meant the concentration at which inhibition is half-maximal. Low readings indicate greater potency, high ones weaker potency.

One test has as its system primary human T-cells. Put plainly: IL2 secretion measurements in CD3-stimulated T-cells. The class given is cell-based. Conditions: Homo sapiens, T-cell, 24 h, CD3 condition; for Emax: IL2 after 24 hours, 20 μM reference compound A1 = 100%, read-out: Emax IL2 (% activation); for EC50: IL2 secretion after 24 hours, read-out: Tcell IL2 CD3 EC50. The procedure: As readouts for T-cell activation, IL2 secretion after 24 hours and proliferation after 5 days was measured. Increases in IL2 secretion and proliferation upon compound treatment were assessed as the % of the maximum of reference compound A1. WO 2016/139181 discloses reference compound A1 as example 70. As a counter screen and to make sure that no unwanted TCR-independent activation was triggered, PBS conditions were run for all compounds.
Expanded primary human T-cells were thawed and cultured in RPMI 1640 (Gibco, #61870-010)+5% human serum (HS, Sigma, #H3667)+1 mM Sodium Pyruvate (Gibco, #11360-039)+50 μM 2-mercaptoethanol (Gibco, #31350-010) and 1× Pen-Strep (Life Technologies, #15140122) medium at density of 2 Mio/ml for 3 hours in 5% CO2, 37° C. and 95% humidity. For coating of plates, […] or PBS++ with CD3 antibody (concentration depending on donor and determined by CD3 titrations) was added 100 μl/well to Poly-D Lysine coated 96-well plates. Plates were sealed and incubated at room temperature for 3 hours on a table-top rocking platform. After incubation, plates were washed once with PBS−− and filled with 40 μl/well culture medium only. Compounds were then added (see next section) to medium only plates. After 3 hours of culturing the T-cells, cells were filtered through a cell strainer (Miltenyi Biotech, #130-041-407), counted again and concentration was adjusted to 1.25 Mio/ml.
Cells were then seeded 80 μl/well to the 40 μl/well including dispensed compounds according to plate layout. By adding cells, compounds were further diluted 1:3, and resulting in 100k cells/120 µl/well. After 24 hours 40 μl of supernatant was collected carefully from the top while not disturbing the cells and transferred into a round bottom 96 well plate. Collected and frozen supernatant was used for detection of IL2 using the IL-2 Human ProQuantum Immunoassay Kit (Invitrogen) or using the Human IL-2 ELISA Kit (Thermo Fisher).
Compound Treatment Compounds were added in a 5 or 6 pt dose response with the Tecan D300e Digital Dispenser, all conditions 3 times more concentrated than the end-concentration, since cells are added afterwards (80p1 cells to 40p1 prepared medium with treatment). The DR was starting at 20 μM or 10 μM final top concentration and a dilution factor of 3.333. The positive control was the reference compound A1 that was added in a dose response as well, additionally to 3 wells of only 20 μM representing the positive stimulator control. All wells were normalized with DMSO to a final concentration of 0.6% (0.2% end-concentration).
The immunoassay is done following the manufacturer's manual (Invitrogen, #A35603).
Additional information: For the immunoassay, MicroAmp™ EnduraPlate™ Optical 384-Well plates are used. Frozen supernatant is thawed and centrifuged for 5 minutes at 1000×g, both steps at 4° C. After centrifugation, required sample amount is taken from the top, and in a separate LightCycler V-bottom plate (working plate) diluted with assay dilution buffer, dilution factor depending on the PBS or CD3 condition but at least 1:3. IL-2 standard and blanks are prepared in the same V-bottom plate, standard with a range of 0.0128-5000 pg/ml (extended version). After preparation, 5 μl of sample dilutions or standard/blanks are transferred to the optical 384-well plate (assay plate) and the 10 μl reaction protocol is being followed. For measurement, the QuantStudio 12K Flex system is used. Raw data is extracted and IL-2 concentrations are calculated with the Thermo Fisher online app (apps.thermofisher.com/apps/proquantum).
ELISA is done following the manufacturer's manual (Thermo Fisher Scientific, #88-7025-88). Additional information: For the ELISA Nunc MaxiSorp 96 well plates are used. Frozen supernatant is thawed and centrifuged for 5 minutes at 1000×g, both steps at 4° C. […]

A further test deals with DGKalpha (Homo sapiens, UniProt P23743). The experiment in a line: In vitro DGK inhibition assay (ADP-Glo, liposomes), DGKalpha. More on the design: hDGKalpha(1-735)-N-His; His (N); made in house; host or cells: Sf21 insect cells (baculovirus). Conditions: 4 nM DGK α, 25 μM ATP, 125 uM DLG in liposomes, 1 hour reaction. It counts as biochemical. The procedure:
DGK α and ζ kinases use ATP to phosphorylate the substrate 1,2-dilauroyl-sn-glycerol (DLG, incorporated in the liposomes). ATP is converted to ADP as a result of this enzymatic reaction. After the kinase reaction, an ATP-depletion reagent is added to terminate the kinase reaction and deplete any remaining ATP, leaving only ADP. Second, a detection reagent is added to simultaneously convert ADP to ATP and allow the newly synthesized ATP to be converted to light using a coupled luciferase/luciferin reaction.
Full length DGKA and Z were expressed in Sf21 insect cells by infecting the cells with the baculovirus stock at MOI of 2. Purification of both enzymes was performed as previously described by Takahashi et al., PeerJ, 2018 (Takahashi, D.; Sakane, F. Expression and purification of human diacylglycerol kinase alpha from baculovirus-infected insect cells for structural studies. PeerJ 2018, 6, No. e5449).
A concentrated liposome solution was prepared in assay buffer without DTT and BSA: 2 mM of DLG in 21 mM of total liposome (2 mM DLG/8 mM PS/11 mM PC). The reaction mixtures contain the assay buffer with a final DLG concentration of 125 uM ATP concentrations of 25 μM (for DGKA assay) or 50 μM (for DGKZ assay). The reactions were started by addition of DGK a and (kinases at 4 nM and 2 nM final concentrations, respectively. After 1 hour reaction, the amount of ADP formed was detected with the ADP-Glo kinase assay (Promega) according to the manufacturer instructions. Compounds were added in 11-points dose response, starting at […], 1:3 dilutions, with a final DMSO concentration of 2%. The multidrop combi was used as a liquid handler and luminescence was read with 0.5 s by the envision reader (PE).

DGKalpha, sequence (P23743 whole entry): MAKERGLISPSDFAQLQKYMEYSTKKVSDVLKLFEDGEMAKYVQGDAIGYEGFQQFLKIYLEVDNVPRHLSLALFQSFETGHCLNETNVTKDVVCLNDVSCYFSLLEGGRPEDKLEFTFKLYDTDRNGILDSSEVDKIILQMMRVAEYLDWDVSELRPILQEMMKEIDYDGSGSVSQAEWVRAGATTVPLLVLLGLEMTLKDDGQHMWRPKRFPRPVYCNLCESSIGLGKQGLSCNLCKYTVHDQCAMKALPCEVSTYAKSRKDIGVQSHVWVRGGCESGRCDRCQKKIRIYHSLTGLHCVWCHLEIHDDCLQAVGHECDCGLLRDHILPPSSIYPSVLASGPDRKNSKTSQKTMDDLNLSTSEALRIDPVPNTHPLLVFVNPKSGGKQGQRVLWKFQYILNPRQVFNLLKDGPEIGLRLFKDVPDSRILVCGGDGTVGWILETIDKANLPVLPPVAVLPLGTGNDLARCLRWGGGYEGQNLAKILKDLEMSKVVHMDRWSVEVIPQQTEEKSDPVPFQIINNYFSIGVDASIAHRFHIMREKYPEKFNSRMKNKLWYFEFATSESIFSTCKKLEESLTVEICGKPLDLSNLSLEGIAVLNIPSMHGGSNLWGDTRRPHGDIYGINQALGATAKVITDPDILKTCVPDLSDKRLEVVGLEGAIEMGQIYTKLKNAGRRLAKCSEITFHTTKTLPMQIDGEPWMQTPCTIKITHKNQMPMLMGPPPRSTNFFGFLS

Turning to `CC(C)(c1nnc(-c2ccc3c(c2)N(Cc2ccc(OCc4ccccc4)cc2)C(=O)[C@@H](N)CS3(=O)=O)o1)S(C)(=O)=O` [Example 11, (3R)-3-amino-5-[(4-benzyloxyphenyl)methyl]-7-[5-(1-methyl-1-methylsulfonyl-ethyl)-1,3,4-oxadiazol-2-yl]-1,1-dioxo-2,3-dihydro-1λ6,5-benzothiazepin-4-one], in the test with primary human T-cells, the maximal response (Emax) was found to be 140% and the EC50 turned out to be 932 nM. The molecule also yielded an IC50 against DGKalpha of 753 nM.
Consider `COc1ccc(-c2ccc(CN3C(=O)[C@@H](N)CS(=O)(=O)c4cc(F)c(-c5nnc(C(C)(C)S(C)(=O)=O)o5)cc43)cc2)cc1` [Example 29, (3R)-3-amino-8-fluoro-5-[[4-(4-methoxyphenyl)phenyl]methyl]-7-[5-(1-methyl-1-methylsulfonyl-ethyl)-1,3,4-oxadiazol-2-yl]-1,1-dioxo-2,3-dihydro-1λ6,5-benzothiazepin-4-one], for which, in the test on primary human T-cells, the Emax was 284% and the concentration giving a half-maximal response (EC50) is 431 nM. Further, the 50% inhibitory concentration (IC50) on DGKalpha was determined as 534 nM.
In the case of `CC(C)(c1nc(-c2cc3c(cc2F)S(=O)(=O)C[C@H](N)C(=O)N3Cc2ccc(-c3noc(C(F)(F)F)n3)cc2)no1)S(C)(=O)=O` [Example 46, (3R)-3-amino-8-fluoro-7-[5-(1-methyl-1-methylsulfonyl-ethyl)-1,2,4-oxadiazol-3-yl]-1,1-dioxo-5-[[4-[5-(trifluoromethyl)-1,2,4-oxadiazol-3-yl]phenyl]methyl]-2,3-dihydro-1λ6,5-benzothiazepin-4-one], in the test on primary human T-cells, the Emax turned out to be 317% and the EC50 came out at 491 nM. Further, half-maximal inhibition against DGKalpha (IC50) was put at 1100 nM.
As to `CC(C)(c1nnc(-c2ccc3c(c2)N(Cc2ccc(OC(F)(F)F)cc2)C(=O)[C@@H](N)CS3(=O)=O)o1)S(C)(=O)=O` [Example 64, (3R)-3-amino-7-[5-(1-methyl-1-methylsulfonyl-ethyl)-1,3,4-oxadiazol-2-yl]-1,1-dioxo-5-[[4-(trifluoromethoxy)phenyl]methyl]-2,3-dihydro-126,5-benzothiazepin-4-one], in the test with primary human T-cells, the Emax is 55% and the 50% effective concentration (EC50) worked out at 2490 nM. Half-maximal inhibition on DGKalpha (IC50) required 3260 nM.
In the case of `CC(C)(c1nnc(-c2ccc3c(c2)N(Cc2ccc(Oc4cccc(C(F)(F)F)c4)cc2)C(=O)[C@@H](N)CS3(=O)=O)o1)S(C)(=O)=O` [Example 38], in the test with primary human T-cells, the Emax came to 155% and the EC50 turned out to be 424 nM. This molecule yielded an IC50 at DGKalpha of 3230 nM.
For the molecule `CC(C)(c1nnc(-c2ccc3c(c2)N(Cc2ccc(Oc4cc(F)cc(C(F)(F)F)c4)cc2)C(=O)[C@@H](N)CS3(=O)=O)o1)S(C)(=O)=O` [Example 39], in the test with primary human T-cells, the maximal response (Emax) is 106% and the concentration giving a half-maximal response (EC50) was found to be 813 nM. Also, the 50% inhibitory concentration (IC50) on DGKalpha is 34900 nM.
On the same counts, the results for `CC(C)(c1nnc(-c2cc3c(cc2F)S(=O)(=O)C[C@H](N)C(=O)N3Cc2ccc(OCC(F)(F)F)cc2)o1)S(C)(=O)=O` [Example 24, (3R)-3-amino-8-fluoro-7-[5-(1-methyl-1-methylsulfonyl-ethyl)-1,3,4-oxadiazol-2-yl]-1,1-dioxo-5-[[4-(2,2,2-trifluoroethoxy)phenyl]methyl]-2,3-dihydro-1λ6,5-benzothiazepin-4-one] are 24%, 1060 nM and 431 nM.
For `CC(C)(c1nnc(-c2ccc3c(c2)N(Cc2ccc(OCc4ccccc4F)cc2)C(=O)[C@@H](N)CS3(=O)=O)o1)S(C)(=O)=O` [Example 14, (3R)-3-amino-5-[[4-[(2-fluorophenyl)methoxy]phenyl]methyl]-7-[5-(1-methyl-1-methylsulfonyl-ethyl)-1,3,4-oxadiazol-2-yl]-1,1-dioxo-2,3-dihydro-1λ6,5-benzothiazepin-4-one], in that order: 101%, 3770 nM and 2020 nM.
`CC(C)(c1nnc(-c2cc3c(cc2F)S(=O)(=O)C[C@H](N)C(=O)N3Cc2ccc(Cl)cc2)o1)S(C)(=O)=O` [Example 2, (3R)-3-amino-5-[(4-chlorophenyl)methyl]-8-fluoro-7-[5-(1-methyl-1-methylsulfonyl-ethyl)-1,3,4-oxadiazol-2-yl]-1,1-dioxo-2,3-dihydro-1λ6,5-benzothiazepin-4-one]: in the test on primary human T-cells, the maximum response (Emax) was determined as 94% and the half-maximal effective concentration (EC50) came out at 328 nM. Inhibition against DGKalpha was half-maximal at 1090 nM (IC50).
Consider `CC(C)(c1nnc(-c2ccc3c(c2)N(Cc2ccc(-c4ccc(OC(F)(F)F)cn4)cc2)C(=O)[C@@H](N)CS3(=O)=O)o1)S(C)(=O)=O` [Example 69, (3R)-3-amino-1,1-diketo-7-[5-(1-mesyl-1-methyl-ethyl)-1,3,4-oxadiazol-2-yl]-5-[4-[5-(trifluoromethoxy)-2-pyridyl]benzyl]-2,3-dihydro-1λ6,5-benzothiazepin-4-one], for which, in the test with primary human T-cells, the Emax was 97% and the concentration for a half-maximal effect (EC50) was determined as 497 nM. At DGKalpha, this molecule came in with an IC50 of 175 nM.
On to `CC(C)(c1nnc(-c2ccc3c(c2)N(Cc2ccc(OCCC(F)(F)F)cc2)C(=O)[C@@H](N)CS3(=O)=O)o1)S(C)(=O)=O` [Example 23, (3R)-3-amino-7-[5-(1-methyl-1-methylsulfonyl-ethyl)-1,3,4-oxadiazol-2-yl]-1,1-dioxo-5-[[4-(3,3,3-trifluoropropoxy)phenyl]methyl]-2,3-dihydro-1λ6,5-benzothiazepin-4-one], for which, in the test with primary human T-cells, the maximal response (Emax) is 62% and the EC50 came to 7330 nM. The IC50 against DGKalpha came to 3080 nM.
Regarding `CC(C)(c1nnc(-c2ccc3c(c2)N(Cc2ccc(OCc4ccc(F)cc4)cc2)C(=O)[C@@H](N)CS3(=O)=O)o1)S(C)(=O)=O` [Example 12, (3R)-3-amino-5-[[4-[(4-fluorophenyl)methoxy]phenyl]methyl]-7-[5-(1-methyl-1-methylsulfonyl-ethyl)-1,3,4-oxadiazol-2-yl]-1,1-dioxo-2,3-dihydro-1λ6,5-benzothiazepin-4-one], in the test with primary human T-cells, the Emax was found to be 173% and the concentration giving a half-maximal response (EC50) came out at 1020 nM. Further, the 50% inhibitory concentration (IC50) at DGKalpha is 669 nM.
